Entries after “also recorded” stand apart in the source; their conditions may differ.
Target: T1, rhodopsin (Bos taurus, UniProt P02699)
T1 construct: Rhodopsin was purified in the light as 6 M urea-washed bovine rod outer segments; from tissue; host or cells: bovine rod outer segments (6 M urea-washed)
Experiment: Rhodopsin-mediated activation of transducin (trypsin sensitivity assay, receptor specificity control)
Assay type: biochemical, bovine
Details: 0.001 mM rhodopsin; AMP 0.25, 0.5, 1.25, 2.5, 5.0 mM; FIG. 1D
Protocol: G Protein Activation Assays. Bovine (Bos primigenius) tongues were collected fresh from a local slaughterhouse and transported on ice to the laboratory. Circumvallate papillae were hand dissected, frozen in liquid nitrogen, and stored at −80° C. until use. The collected taste tissues were homogenized, particulates removed by centrifugation, and enriched taste cell membranes collected as described (Ming, D., et al., 1998, Proc. Natl. Acad. Sci. U.S.A. 95:8933-8938). The pelleted membranes were rinsed twice, resuspended in homogenization buffer lacking protease inhibitors, and further homogenized by 20 passages through a 25-gauge needle. Aliquots were either flash frozen or stored on ice until use. The concentration of protein in the membrane preparations was determined by the Peterson modification of the micro-Lowry method (Peterson, G. L., 1977, Anal. Biochem. 83:346-356). Activation of transducin was based on the published trypsin sensitivity procedure (Ming, D., et al., 1998, Proc. Natl. Acad. Sci. U.S.A. 95:8933-8938, Neer, E. J., et al., 1994, Methods Enzymol. 237:226-239). After the trypsin digestion, samples were diluted with Laemmli buffer (Laemmli. U. K., 1970, Nature (London) 227:680-685) and separated by SDS/PAGE by using a 4-20% gel and Tris-glycine buffer. […]

T1 sequence (P02699 whole entry): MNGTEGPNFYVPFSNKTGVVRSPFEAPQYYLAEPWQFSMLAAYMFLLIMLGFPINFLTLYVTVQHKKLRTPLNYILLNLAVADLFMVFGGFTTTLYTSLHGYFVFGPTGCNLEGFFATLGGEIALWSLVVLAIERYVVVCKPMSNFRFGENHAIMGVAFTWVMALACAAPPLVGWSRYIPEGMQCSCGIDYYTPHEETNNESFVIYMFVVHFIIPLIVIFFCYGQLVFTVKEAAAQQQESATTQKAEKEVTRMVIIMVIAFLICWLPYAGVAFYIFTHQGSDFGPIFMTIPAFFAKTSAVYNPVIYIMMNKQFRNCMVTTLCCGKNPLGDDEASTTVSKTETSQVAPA

Nc1ncnc2c1ncn2[C@@H]1O[C@H](COP(=O)(O)O)[C@@H](O)[C@H]1O [AMP, adenosine 5′ monophosphate] was tested, and the “inhibition of activation of transducin by rhodopsin” value was “does not inhibit; also recorded: did not inhibit”.
